Results published in article PMC8010095, “Discovery of novel antituberculosis agents among 3-phenyl-5-(1-phenyl-1H-[1,2,3]triazol-4-yl)-[1,2,4]oxadiazole derivatives targeting aminoacyl-tRNA synthetases” (Scientific Reports, 2021).
Values after ≈ are worked out from the molar mass of the structure shown.

Key:
[1] = test system: moxifloxacin-resistant strain H37Rv (gyrA^D94K) (MOX3); assay type: cell-based, Mycobacterium tuberculosis
[2] = test system: rifampin-resistant strain H37Rv (rpoB^S450L) (ATCC #35,838); assay type: cell-based, Mycobacterium tuberculosis
[3] = test system: isoniazid-resistant H37Rv (katG^del) (MS015); assay: microbe, parasite or virus in culture; assay type: cell-based; conditions: > 80% reduction in growth, screened at 20, 2 and 0.2 mg/L, 7H9 complete medium; for MIC: Mycobacterium tuberculosis, H37RV, read-out: Growth inhibition cutoff, H37Rv (katG^del)
[4] = test system: M. tuberculosis mono-resistant strains; assay: microbe, parasite or virus in culture; assay type: cell-based

Row | Compound | Growth inhibition cutoff, H37Rv (gyrA^D94K) [1] [mg/L] | Growth inhibition cutoff, H37Rv (rpoB^S450L) [2] [mg/L] | Growth inhibition cutoff, H37Rv (katG^del) [3] [mg/L] | MIC ([4]; Mycobacterium tuberculosis, read-out: growth inhibition cutoff) [µM] | MIC [3] [µg/mL] | growth inhibition cutoff [4] [µM]
1 | COc1ccc(-c2noc(-c3nnn(-c4ccc(Cl)cc4)c3C)n2)cc1OC [Compound 38] | > 20 | > 20 | > 20 |  |  | 
2 | COc1ccc(Cl)cc1-n1nnc(-c2nc(-c3ccc(F)cc3)no2)c1N [Compound 27] | > 20 | 2 to 20 |  | 5.17 to 51.7 (≈ 2 to 20 µg/mL) | > 20 | 
3 | COc1ccc(-n2nnc(-c3nc(-c4ccc(F)cc4)no3)c2N)cc1Cl [Compound 17, 3-(3-chloro-4-methoxy-phenyl)-5-[3-(4-fluoro-phenyl)-[1,2,4]oxadiazol-5-yl]-3H-[1,2,3]triazol-4-ylamine] | > 20 | > 20 | > 20 |  |  | 
4 | CCOc1ccc(-c2noc(-c3nnn(-c4ccccc4F)c3N)n2)cc1 [Compound 39] | > 20 | > 20 | > 20 |  |  | 
5 | Nc1c(-c2nc(-c3ccc(F)cc3)no2)nnn1-c1ccccc1F [Compound 23] | > 20 | > 20 | > 20 |  |  | 
6 | Nc1c(-c2nc(-c3ccc(F)cc3)no2)nnn1-c1cccc(C(F)(F)F)c1 [Compound 19] | > 20 | > 20 | > 20 |  |  | 
7 | Nc1c(-c2nc(-c3ccc(F)cc3)no2)nnn1-c1ccc(F)cc1 [Compound 12] | > 20 | > 20 | > 20 |  |  | 
8 | Nc1c(-c2nc(-c3ccccc3)no2)nnn1-c1ccc(C(F)(F)F)c(Cl)c1 [Compound 2] | > 20 | > 20 |  |  | > 20 | 
9 | COc1ccc(-n2nnc(-c3nc(-c4ccc(F)cc4)no3)c2N)cc1 [Compound 13] | > 20 | > 20 |  |  | > 20 | 
10 | CCOc1ccc(-c2noc(-c3nnn(-c4ccc(F)c(Cl)c4)c3N)n2)cc1 [Compound 41] | > 20 | > 20 | > 20 |  |  | 
11 | CCOc1ccccc1-n1nnc(-c2nc(-c3ccc(Br)cc3)no2)c1N [Compound 36] | > 20 | > 20 | > 20 |  |  | 
12 | COc1ccccc1-n1nnc(-c2nc(-c3ccc(F)cc3)no2)c1N [Compound 26] | > 20 | > 20 | > 20 |  |  | 
13 | CCOc1ccccc1-n1nnc(-c2nc(-c3ccc(F)cc3)no2)c1N [Compound 30] | > 20 | > 20 | > 20 |  |  | 
14 | Cc1c(-c2nc(-c3ccccc3Cl)no2)nnn1-c1cccc(F)c1 [Compound 7] | > 20 | > 20 | > 20 |  |  | 
15 | COc1ccccc1-n1nnc(-c2nc(-c3ccc(Br)cc3)no2)c1N [Compound 35] | > 20 | > 20 | > 20 |  |  | 
16 | COc1ccc(-n2nnc(-c3nc(-c4ccc(F)cc4)no3)c2N)cc1OC [Compound 21] | > 20 | > 20 | > 20 |  |  | 
17 | Cc1c(-c2nc(-c3ccccc3F)no2)nnn1-c1ccc(F)c(Cl)c1 [Compound 4] | > 20 | > 20 | > 20 |  |  | 
18 | COc1ccc(-c2noc(-c3nnn(-c4cc(Cl)ccc4OC)c3N)n2)cc1 [Compound 37] | > 20 | > 20 | > 20 |  |  | 
19 | Cc1cccc(-n2nnc(-c3nc(-c4ccc(F)cc4)no3)c2N)c1 [Compound 18] | > 20 | > 20 | > 20 |  |  | 

Row | Compound | Growth inhibition cutoff, H37Rv (gyrA^D94K) [1] [mg/L] | Growth inhibition cutoff, H37Rv (rpoB^S450L) [2] [mg/L] | Growth inhibition cutoff, H37Rv (katG^del) [3] [mg/L] | MIC ([4]; Mycobacterium tuberculosis, read-out: growth inhibition cutoff) [µM] | MIC [3] [µg/mL] | growth inhibition cutoff [4] [µM]
20 | COc1ccc(OC)c(-n2nnc(-c3nc(-c4ccc(F)cc4)no3)c2N)c1 [Compound 29] | > 20 | > 20 | > 20 |  |  | 
21 | Nc1c(-c2nc(-c3ccc(Cl)cc3)no2)nnn1-c1ccc(Br)cc1F [Compound 31] | > 20 | > 20 | > 20 |  |  | 
22 | Cc1ccccc1-c1noc(-c2nnn(-c3ccc(Br)cc3)c2C)n1 [Compound 8] | > 20 | > 20 | > 20 |  |  | 
23 | Nc1c(-c2nc(-c3ccc(Br)cc3)no2)nnn1-c1cccc(F)c1 [Compound 33] | > 20 | > 20 | > 20 |  |  | 
24 | Nc1c(-c2nc(-c3ccc(F)cc3)no2)nnn1-c1ccc(Br)cc1 [Compound 11] | > 20 | > 20 | > 20 |  |  | 
25 | COc1cccc(-n2nnc(-c3nc(-c4ccc(F)cc4)no3)c2N)c1 [Compound 20] | 2 to 20 | 2 to 20 | > 20 |  |  | 5.7 to 57
26 | Nc1c(-c2nc(-c3ccc(F)cc3)no2)nnn1-c1cccc(Cl)c1 [Compound 16] | > 20 | > 20 | > 20 |  |  | 
27 | CCc1ccc(-n2nnc(-c3nc(-c4ccc(F)cc4)no3)c2N)cc1 [Compound 14] | > 20 | > 20 | > 20 |  |  | 
28 | Nc1c(-c2nc(-c3ccc(F)cc3)no2)nnn1-c1ccc(Cl)cc1 [Compound 10] | > 20 | > 20 | > 20 |  |  | 
29 | Cc1c(-c2nc(-c3ccccc3F)no2)nnn1-c1cc(F)ccc1F [Compound 6] | > 20 | > 20 | > 20 |  |  | 
30 | Cc1c(-c2nc(-c3ccccc3F)no2)nnn1-c1ccc(Br)cc1 [Compound 5] | 2 to 20 | 2 to 20 | > 20 |  |  | 
31 | Nc1c(-c2nc(-c3ccc(Br)cc3)no2)nnn1-c1ccc(F)cc1 [Compound 32] | > 20 | > 20 | > 20 |  |  | 
32 | COc1ccc(C)cc1-n1nnc(-c2nc(-c3ccc(F)cc3)no2)c1N [Compound 28] | > 20 | > 20 | > 20 |  |  | 
33 | Nc1c(-c2nc(-c3ccccc3)no2)nnn1-c1ccccc1F [Compound 1] | > 20 | > 20 | > 20 |  |  | 
34 | Nc1c(-c2nc(-c3ccc(F)cc3)no2)nnn1-c1cccc(F)c1 [Compound 15] | > 20 | > 20 | > 20 |  |  | 
35 | CCOc1ccc(-c2noc(-c3nnn(-c4ccccc4Cl)c3N)n2)cc1 [Compound 40] | 2 to 20 | > 20 | > 20 |  |  | 5.22 to 52.2
36 | Nc1c(-c2nc(-c3ccc(F)cc3)no2)nnn1-c1ccc(F)cc1F [Compound 22] | > 20 | > 20 | > 20 |  |  | 
37 | Nc1c(-c2nc(-c3ccc(F)cc3)no2)nnn1-c1ccccc1 [Compound 9] | > 20 | > 20 | > 20 |  |  | 
